Test results: the Kinase Knowledgebase extract (Sharma et al. 2016)

molecular target: PIK3CG (human) (UniProt P48736); test: Inhibition of PIK3CG Kinase Activity
Sequence (P48736 whole entry, looked up): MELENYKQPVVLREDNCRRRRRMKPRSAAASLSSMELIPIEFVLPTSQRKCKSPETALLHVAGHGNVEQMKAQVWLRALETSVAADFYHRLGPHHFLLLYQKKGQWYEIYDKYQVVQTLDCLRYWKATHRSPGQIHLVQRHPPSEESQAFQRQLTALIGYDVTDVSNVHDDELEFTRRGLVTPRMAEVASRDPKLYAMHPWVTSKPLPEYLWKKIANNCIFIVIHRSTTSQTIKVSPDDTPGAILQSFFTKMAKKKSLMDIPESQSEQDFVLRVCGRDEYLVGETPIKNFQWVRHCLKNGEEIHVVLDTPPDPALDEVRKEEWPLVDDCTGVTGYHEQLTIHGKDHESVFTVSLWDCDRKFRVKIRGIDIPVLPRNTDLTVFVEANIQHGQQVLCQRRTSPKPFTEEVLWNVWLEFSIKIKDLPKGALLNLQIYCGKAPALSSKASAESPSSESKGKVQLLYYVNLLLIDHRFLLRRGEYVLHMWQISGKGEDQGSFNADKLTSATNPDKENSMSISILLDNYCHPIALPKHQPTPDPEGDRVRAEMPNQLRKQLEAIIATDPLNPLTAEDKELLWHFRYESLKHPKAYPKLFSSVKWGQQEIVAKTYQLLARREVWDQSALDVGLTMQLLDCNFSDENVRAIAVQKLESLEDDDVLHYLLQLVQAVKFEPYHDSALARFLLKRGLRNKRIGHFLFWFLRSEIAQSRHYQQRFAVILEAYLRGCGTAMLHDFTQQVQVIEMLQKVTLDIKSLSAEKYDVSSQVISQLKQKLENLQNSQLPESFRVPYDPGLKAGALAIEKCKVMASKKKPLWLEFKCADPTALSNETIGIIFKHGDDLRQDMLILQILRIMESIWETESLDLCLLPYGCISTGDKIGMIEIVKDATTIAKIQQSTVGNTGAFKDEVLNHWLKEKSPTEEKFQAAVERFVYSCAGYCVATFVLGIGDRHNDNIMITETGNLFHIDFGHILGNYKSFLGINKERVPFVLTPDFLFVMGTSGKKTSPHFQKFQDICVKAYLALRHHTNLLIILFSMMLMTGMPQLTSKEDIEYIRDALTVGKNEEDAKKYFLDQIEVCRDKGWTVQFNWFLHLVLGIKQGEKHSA

IC50, < 2000 nM:
COCCOc1c(F)cc(-c2nn(C)c3nc(N)ncc23)cc1Br
CNS(=O)(=O)c1cc(-c2nn(C)c3nc(N)ncc23)c(OC)cc1OC
Cn1nc(-c2ccnc(Cl)c2)c2cnc(N)nc21
COc1ccc(NCCCN(C)C)cc1-c1nn(C)c2nc(N)ncc12
Cn1nc(-c2ccc(Cl)c(NS(C)(=O)=O)c2)c2cnc(N)nc21
Cn1nc(-c2ccc3cc[nH]c3c2)c2cnc(N)nc21
Cn1nc(-c2cc(F)c(C(=O)O)c(F)c2)c2cnc(N)nc21
Cn1nc(-c2ccc(NS(C)(=O)=O)c(F)c2)c2cnc(N)nc21
Cn1nc(-c2ccc3c(c2)OCO3)c2cnc(N)nc21
COc1cc(OC)c(S(=O)(=O)NC(C)C)cc1-c1nn(C)c2nc(N)ncc12
Cn1nc(-c2cccnc2)c2cnc(N)nc21
Cn1nc(-c2cc(C(F)(F)F)cc(Cl)c2O)c2cnc(N)nc21
CN(C)C(=O)c1cc(-c2nn(C)c3nc(N)ncc23)cc(F)c1OCc1ccccc1
COc1cccc(OC)c1-c1nn(C)c2nc(N)ncc12
Cn1nc(-c2ccc(Cl)s2)c2cnc(N)nc21
CC(=O)c1ccc(-c2nn(C)c3nc(N)ncc23)s1
Cn1nc(-c2ccco2)c2cnc(N)nc21
COCCOc1ccc(-c2nn(C)c3nc(N)ncc23)cc1F
Cn1nc(-c2cccc(C=O)c2)c2cnc(N)nc21
Cn1nc(-c2ccc(O)cc2)c2cnc(N)nc21
Cn1nc(-c2cc(F)ccc2OCCO)c2cnc(N)nc21
CNc1ncc2c(-c3ccc(OC)c(F)c3)nn(C)c2n1
CCOc1ccc2ccccc2c1-c1nn(C)c2nc(N)ncc12
Cn1nc(-c2ccc(Cl)c(Cl)c2)c2cnc(N)nc21
Cn1nc(-c2ccc(OCc3ccccc3)c(F)c2)c2cnc(N)nc21
